Results taken from patent publication US10072026B2, “Crystalline form of 3-((1R,3s,5S)-3-((7-((5-methyl-1H-pyrazol-3-yl)amino)-1,6-naphthyridin-5-yl)amino)-8-azabicyclo[3.2.1]octan-8-yl)propanenitrile” (priority 2015, dated 2018).

Legend:
JAK2 = JAK2 (Homo sapiens (Human), UniProt O60674); assay: LanthaScreen JAK biochemical assay (JAK2)
JAK3 = JAK3 (Homo sapiens (Human), UniProt P52333); assay: LanthaScreen JAK biochemical assay (JAK3)
[1] = tested on: IL-4 induced STAT6 phosphorylation in THP-1 human monocytic cells; assay: Cellular JAK potency assay, THP-1
[2] = tested on: IL-13 induced STAT6 phosphorylation in BEAS-2B human lung epithelial cells; assay: AlphaScreen cellular JAK potency assay, BEAS-2B
JAK1 = JAK1 (Homo sapiens (Human), UniProt P23458); assay: LanthaScreen JAK biochemical assay (JAK1)
Sequence of JAK1 (P23458 whole entry): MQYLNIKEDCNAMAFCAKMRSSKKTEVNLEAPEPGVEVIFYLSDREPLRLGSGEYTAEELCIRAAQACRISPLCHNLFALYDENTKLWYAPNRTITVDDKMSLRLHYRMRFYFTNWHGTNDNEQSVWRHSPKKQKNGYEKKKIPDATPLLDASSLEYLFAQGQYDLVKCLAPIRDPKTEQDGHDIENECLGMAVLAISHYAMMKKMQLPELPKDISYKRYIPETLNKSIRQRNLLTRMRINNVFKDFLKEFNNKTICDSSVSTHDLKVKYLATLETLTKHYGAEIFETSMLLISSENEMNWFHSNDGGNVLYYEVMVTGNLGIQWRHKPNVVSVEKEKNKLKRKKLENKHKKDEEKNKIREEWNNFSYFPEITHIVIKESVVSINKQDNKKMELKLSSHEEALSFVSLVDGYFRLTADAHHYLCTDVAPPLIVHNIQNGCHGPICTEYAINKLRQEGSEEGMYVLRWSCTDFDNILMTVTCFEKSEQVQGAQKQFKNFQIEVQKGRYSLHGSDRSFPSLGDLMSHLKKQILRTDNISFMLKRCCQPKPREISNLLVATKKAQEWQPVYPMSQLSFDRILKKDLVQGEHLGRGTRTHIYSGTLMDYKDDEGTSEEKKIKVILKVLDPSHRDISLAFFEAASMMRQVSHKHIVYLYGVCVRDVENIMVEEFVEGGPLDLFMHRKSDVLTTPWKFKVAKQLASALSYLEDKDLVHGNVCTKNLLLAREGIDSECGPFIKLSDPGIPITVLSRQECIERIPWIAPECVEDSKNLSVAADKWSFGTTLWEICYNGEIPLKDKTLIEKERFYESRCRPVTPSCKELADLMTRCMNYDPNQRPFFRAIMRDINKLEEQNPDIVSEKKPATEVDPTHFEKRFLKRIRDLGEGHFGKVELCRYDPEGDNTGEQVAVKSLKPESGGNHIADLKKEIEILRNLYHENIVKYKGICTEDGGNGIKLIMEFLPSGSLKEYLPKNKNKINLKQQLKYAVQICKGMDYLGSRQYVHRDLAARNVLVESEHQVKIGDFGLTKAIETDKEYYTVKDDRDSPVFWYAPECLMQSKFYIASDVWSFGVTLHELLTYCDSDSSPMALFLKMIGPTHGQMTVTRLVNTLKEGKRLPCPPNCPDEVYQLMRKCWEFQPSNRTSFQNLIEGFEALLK

Tyk2 = Tyk2 (Homo sapiens (Human), UniProt P29597); assay: LanthaScreen JAK biochemical assay (Tyk2)
Sequence of Tyk2 (P29597 whole entry): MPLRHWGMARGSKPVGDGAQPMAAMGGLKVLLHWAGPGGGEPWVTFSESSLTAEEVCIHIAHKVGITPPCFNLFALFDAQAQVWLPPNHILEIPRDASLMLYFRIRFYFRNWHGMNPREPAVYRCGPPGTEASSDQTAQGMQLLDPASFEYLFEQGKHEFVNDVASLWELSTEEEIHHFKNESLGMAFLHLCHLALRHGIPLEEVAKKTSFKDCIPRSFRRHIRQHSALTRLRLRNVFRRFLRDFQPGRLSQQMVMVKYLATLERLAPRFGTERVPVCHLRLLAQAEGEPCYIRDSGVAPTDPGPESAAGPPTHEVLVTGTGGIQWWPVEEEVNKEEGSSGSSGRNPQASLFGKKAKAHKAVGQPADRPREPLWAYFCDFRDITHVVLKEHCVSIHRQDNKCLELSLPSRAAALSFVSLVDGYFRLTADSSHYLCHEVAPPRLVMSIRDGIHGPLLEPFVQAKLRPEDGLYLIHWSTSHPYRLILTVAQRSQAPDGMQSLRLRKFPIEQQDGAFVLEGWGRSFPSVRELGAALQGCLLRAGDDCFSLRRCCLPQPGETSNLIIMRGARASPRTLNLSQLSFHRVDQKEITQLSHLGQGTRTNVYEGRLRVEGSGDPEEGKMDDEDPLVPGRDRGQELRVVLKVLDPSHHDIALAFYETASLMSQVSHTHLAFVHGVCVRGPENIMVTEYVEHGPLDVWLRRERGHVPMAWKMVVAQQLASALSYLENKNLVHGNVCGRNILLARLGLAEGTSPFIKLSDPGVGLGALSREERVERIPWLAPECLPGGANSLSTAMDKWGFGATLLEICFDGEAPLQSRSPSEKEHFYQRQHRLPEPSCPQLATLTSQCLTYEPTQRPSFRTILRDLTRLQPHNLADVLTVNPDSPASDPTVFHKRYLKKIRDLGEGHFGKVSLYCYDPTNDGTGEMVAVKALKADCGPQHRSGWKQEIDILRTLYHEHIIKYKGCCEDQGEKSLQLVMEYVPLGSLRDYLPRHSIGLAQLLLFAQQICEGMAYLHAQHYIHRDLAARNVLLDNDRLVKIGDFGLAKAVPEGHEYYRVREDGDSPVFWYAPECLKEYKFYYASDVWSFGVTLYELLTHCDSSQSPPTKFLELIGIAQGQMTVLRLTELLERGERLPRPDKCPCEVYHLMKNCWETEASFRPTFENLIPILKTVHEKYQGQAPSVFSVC

[3] = THP-1 cells, IL-4 induced STAT6 phosphorylation
[4] = BEAS-2B cells, IL-13 induced STAT6 phosphorylation
[5] = IL-4 induced STAT6 phosphorylation, THP-1 cells
[6] = IL-13 induced STAT6 phosphorylation, BEAS-2B cells

Sequence of JAK2 (O60674 whole entry): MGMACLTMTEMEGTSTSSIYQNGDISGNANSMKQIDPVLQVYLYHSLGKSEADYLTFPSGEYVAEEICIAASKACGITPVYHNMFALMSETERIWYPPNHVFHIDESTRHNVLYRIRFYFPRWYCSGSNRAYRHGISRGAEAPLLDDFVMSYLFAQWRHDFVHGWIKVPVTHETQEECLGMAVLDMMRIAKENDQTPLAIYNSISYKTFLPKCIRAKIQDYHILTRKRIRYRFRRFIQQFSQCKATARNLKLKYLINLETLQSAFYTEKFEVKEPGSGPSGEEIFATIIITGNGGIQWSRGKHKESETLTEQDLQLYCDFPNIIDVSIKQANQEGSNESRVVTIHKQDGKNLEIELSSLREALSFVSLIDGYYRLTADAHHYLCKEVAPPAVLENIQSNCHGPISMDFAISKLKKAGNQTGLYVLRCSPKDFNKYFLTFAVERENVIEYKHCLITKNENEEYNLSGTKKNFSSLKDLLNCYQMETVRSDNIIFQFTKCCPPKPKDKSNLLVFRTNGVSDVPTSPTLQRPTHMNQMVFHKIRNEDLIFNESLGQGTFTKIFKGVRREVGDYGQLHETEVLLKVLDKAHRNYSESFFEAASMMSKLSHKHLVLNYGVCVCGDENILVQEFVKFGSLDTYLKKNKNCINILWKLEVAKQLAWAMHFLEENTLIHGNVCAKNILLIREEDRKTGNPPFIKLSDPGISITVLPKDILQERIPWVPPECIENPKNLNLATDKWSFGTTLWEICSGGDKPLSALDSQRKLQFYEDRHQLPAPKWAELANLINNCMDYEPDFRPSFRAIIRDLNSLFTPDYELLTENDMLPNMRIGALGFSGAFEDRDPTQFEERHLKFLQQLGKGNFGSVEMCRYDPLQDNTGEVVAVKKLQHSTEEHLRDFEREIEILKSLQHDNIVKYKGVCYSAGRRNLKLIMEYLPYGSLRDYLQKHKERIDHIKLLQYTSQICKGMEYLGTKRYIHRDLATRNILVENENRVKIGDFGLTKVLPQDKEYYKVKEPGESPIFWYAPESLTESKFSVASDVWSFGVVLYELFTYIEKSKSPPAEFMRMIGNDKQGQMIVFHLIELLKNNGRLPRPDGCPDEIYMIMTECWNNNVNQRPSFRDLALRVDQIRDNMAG

Row | Compound | JAK 2 (pKi) (JAK2) | JAK 3 (pKi) (JAK3) | THP-1 IL4 pIC50 [1, 3] | BEAS2B pIC50 [2, 4] | JAK 1 (pKi) (JAK1) | Tyk 2 (pKi) (Tyk2) | THP-1 IL4 pIC50 [1, 5] | BEAS2B pIC50 [2, 6]
1 | Cc1cnc2c(F)c(Nc3cc(C)[nH]n3)nc(N[C@@H]3C[C@H]4CCC[C@@H](C3)N4S(=O)(=O)c3cccnc3)c2c1 [Example 8-24] | B (B represents a pKi value between 9 and 10 (Ki between 1 nM and 0.1 nM)) | C (C represents a pKi value between 7 and 9 (Ki between 100 nM and 1 nM)) | B (B represents a pEC50 value between 6.7 and 7.5 (EC50 between 200 nM and 32 nM)) | B (B represents a pEC50 value between 6.7 and 7.5 (EC50 between 200 nM and 32 nM)) | B (B represents a pKi value between 9 and 10 (Ki between 1 nM and 0.1 nM)) |  |  | 
2 | Cc1cc(Nc2nc(N[C@@H]3C[C@H]4CCC[C@@H](C3)N4S(=O)(=O)c3cncc(F)c3)c3cccnc3c2F)n[nH]1 [Example 8-13] | B (B represents a pKi value between 9 and 10 (Ki between 1 nM and 0.1 nM)) | C (C represents a pKi value between 7 and 9 (Ki between 100 nM and 1 nM)) | B (B represents a pEC50 value between 6.7 and 7.5 (EC50 between 200 nM and 32 nM)) | A (A represents a pEC50 value≥7.5 (EC50≤32 nM)) | B (B represents a pKi value between 9 and 10 (Ki between 1 nM and 0.1 nM)) |  |  | 
3 | CCC(C)C(=O)N1C2CCC1CC(Nc1nc(Nc3cc(C)[nH]n3)cc3ncc(C(=O)OC)cc13)C2 (centres unmarked) [Example 6-38] | B (B represents a pKi value between 9 and 10 (Ki between 1 nM and 0.1 nM)) | C (C represents a pKi value between 7 and 9 (Ki between 100 nM and 1 nM)) | B (B represents a pEC50 value between 6.7 and 7.5 (EC50 between 200 nM and 32 nM)) |  | B (B represents a pKi value between 9 and 10 (Ki between 1 nM and 0.1 nM)) | C (C represents a pKi value between 7 and 9 (Ki between 100 nM and 1 nM)) |  | 
4 | COc1cnc2cc(Nc3cc(C)[nH]n3)nc(NC3CC4CCCC(C3)N4C(=O)C(C)O)c2c1 (centres unmarked) [Example 6-27] | B (B represents a pKi value between 9 and 10 (Ki between 1 nM and 0.1 nM)) | C (C represents a pKi value between 7 and 9 (Ki between 100 nM and 1 nM)) | B (B represents a pEC50 value between 6.7 and 7.5 (EC50 between 200 nM and 32 nM)) |  | B (B represents a pKi value between 9 and 10 (Ki between 1 nM and 0.1 nM)) | C (C represents a pKi value between 7 and 9 (Ki between 100 nM and 1 nM)) |  | 
5 | Cc1cc(Nc2nc(N[C@@H]3C[C@H]4CC[C@@H](C3)N4S(C)(=O)=O)c3cccnc3c2F)n[nH]1 [Example 8-2] | B (B represents a pKi value between 9 and 10 (Ki between 1 nM and 0.1 nM)) | C (C represents a pKi value between 7 and 9 (Ki between 100 nM and 1 nM)) | A (A represents a pEC50 value≥7.5 (EC50≤32 nM)) | C (C represents a pEC50 value<6.7 (EC50>200 nM)) | B (B represents a pKi value between 9 and 10 (Ki between 1 nM and 0.1 nM)) |  |  | 
6 | Cc1cc(Nc2nc(NC3CC4CCC(C3)N4C(=O)C(C)O)c3cccnc3c2F)n[nH]1 (centres unmarked) [Example 8-8] | C (C represents a pKi value between 7 and 9 (Ki between 100 nM and 1 nM)) | C (C represents a pKi value between 7 and 9 (Ki between 100 nM and 1 nM)) | C (C represents a pEC50 value<6.7 (EC50>200 nM)) |  | C (C represents a pKi value between 7 and 9 (Ki between 100 nM and 1 nM)) | C (C represents a pKi value between 7 and 9 (Ki between 100 nM and 1 nM)) |  | 
7 | Cc1cc(Nc2nc(N[C@@H]3C[C@H]4CCC[C@@H](C3)N4Cc3ccncc3)c3cccnc3c2F)n[nH]1 [Example 8-14] | B (B represents a pKi value between 9 and 10 (Ki between 1 nM and 0.1 nM)) | C (C represents a pKi value between 7 and 9 (Ki between 100 nM and 1 nM)) | A (A represents a pEC50 value≥7.5 (EC50≤32 nM)) | A (A represents a pEC50 value≥7.5 (EC50≤32 nM)) | B (B represents a pKi value between 9 and 10 (Ki between 1 nM and 0.1 nM)) |  |  | 
8 | Cc1cnc2cc(Nc3cc(C)[nH]n3)nc(N[C@@H]3C[C@H]4CCC[C@@H](C3)N4CCC#N)c2c1 [Example 6-6] | A (A represents a pKi value≥10 (Ki≤0.1 nM)) | B (B represents a pKi value between 9 and 10 (Ki between 1 nM and 0.1 nM)) | A (A represents a pEC50 value≥7.5 (EC50≤32 nM)) | A (A represents a pEC50 value≥7.5 (EC50≤32 nM)) |  |  |  | 
9 | Cc1cc(Nc2cc3ncccc3c(N[C@@H]3C[C@H]4CC[C@@H](C3)N4C(=O)C(C)F)n2)n[nH]1 (some centres unmarked) [Example 2-3] | B (B represents a pKi value between 9 and 10 (Ki between 1 nM and 0.1 nM)) | C (C represents a pKi value between 7 and 9 (Ki between 100 nM and 1 nM)) |  |  | B (B represents a pKi value between 9 and 10 (Ki between 1 nM and 0.1 nM)) |  | B (B represents a pEC50 value between 6.7 and 7.5 (EC50 between 200 nM and 32 nM)) | A (A represents a pEC50 value≥7.5 (EC50≤32 nM))
10 | COC(=O)c1cnc2cc(Nc3cc(C)[nH]n3)nc(N[C@@H]3C[C@H]4CCC[C@@H](C3)N4C[C@H]3CCC(=O)O3)c2c1 [Example 6-49] | B (B represents a pKi value between 9 and 10 (Ki between 1 nM and 0.1 nM)) | C (C represents a pKi value between 7 and 9 (Ki between 100 nM and 1 nM)) | B (B represents a pEC50 value between 6.7 and 7.5 (EC50 between 200 nM and 32 nM)) |  | B (B represents a pKi value between 9 and 10 (Ki between 1 nM and 0.1 nM)) | C (C represents a pKi value between 7 and 9 (Ki between 100 nM and 1 nM)) |  | 
11 | Cc1cc(Nc2nc(NC3CC4CCCC(C3)N4C(=O)C(C)O)c3cccnc3c2F)n[nH]1 (centres unmarked) [Example 8-16] | B (B represents a pKi value between 9 and 10 (Ki between 1 nM and 0.1 nM)) | C (C represents a pKi value between 7 and 9 (Ki between 100 nM and 1 nM)) | B (B represents a pEC50 value between 6.7 and 7.5 (EC50 between 200 nM and 32 nM)) |  | B (B represents a pKi value between 9 and 10 (Ki between 1 nM and 0.1 nM)) | C (C represents a pKi value between 7 and 9 (Ki between 100 nM and 1 nM)) |  | 
12 | Cc1cnc2cc(Nc3cc(C)[nH]n3)nc(N[C@@H]3C[C@H]4CCC[C@@H](C3)N4Cc3ccncc3)c2c1 [Example 6-10] | B (B represents a pKi value between 9 and 10 (Ki between 1 nM and 0.1 nM)) | C (C represents a pKi value between 7 and 9 (Ki between 100 nM and 1 nM)) | B (B represents a pEC50 value between 6.7 and 7.5 (EC50 between 200 nM and 32 nM)) |  | B (B represents a pKi value between 9 and 10 (Ki between 1 nM and 0.1 nM)) | B (B represents a pKi value between 9 and 10 (Ki between 1 nM and 0.1 nM)) |  | 
13 | Cc1cc(Nc2cc3nc(CN4CCC(F)(F)CC4)ccc3c(N[C@@H]3C[C@H]4CC[C@@H](C3)N4CC(C)C)n2)n[nH]1 [Example 5-34] | B (B represents a pKi value between 9 and 10 (Ki between 1 nM and 0.1 nM)) | C (C represents a pKi value between 7 and 9 (Ki between 100 nM and 1 nM)) |  |  | B (B represents a pKi value between 9 and 10 (Ki between 1 nM and 0.1 nM)) | B (B represents a pKi value between 9 and 10 (Ki between 1 nM and 0.1 nM)) | B (B represents a pEC50 value between 6.7 and 7.5 (EC50 between 200 nM and 32 nM)) | 
14 | Cc1cnc2cc(Nc3cc(C)[nH]n3)nc(N[C@@H]3C[C@H]4CC[C@@H](C3)N4C(=O)OCC(C)C)c2c1 [Example 6-3] | B (B represents a pKi value between 9 and 10 (Ki between 1 nM and 0.1 nM)) | C (C represents a pKi value between 7 and 9 (Ki between 100 nM and 1 nM)) | B (B represents a pEC50 value between 6.7 and 7.5 (EC50 between 200 nM and 32 nM)) | B (B represents a pEC50 value between 6.7 and 7.5 (EC50 between 200 nM and 32 nM)) | B (B represents a pKi value between 9 and 10 (Ki between 1 nM and 0.1 nM)) |  |  | 
15 | CCC(C)C(=O)N1C2CCCC1CC(Nc1nc(Nc3cc(C)[nH]n3)cc3ncccc13)C2 (centres unmarked) [Example 2-18] | B (B represents a pKi value between 9 and 10 (Ki between 1 nM and 0.1 nM)) | C (C represents a pKi value between 7 and 9 (Ki between 100 nM and 1 nM)) |  |  | B (B represents a pKi value between 9 and 10 (Ki between 1 nM and 0.1 nM)) | B (B represents a pKi value between 9 and 10 (Ki between 1 nM and 0.1 nM)) | A (A represents a pEC50 value≥7.5 (EC50≤32 nM)) | 
16 | C=CCOC(=O)N1[C@@H]2CC[C@H]1C[C@H](Nc1nc(Nc3cc(C)[nH]n3)cc3nc(OC)ccc13)C2 [Example 5-7] |  | C (C represents a pKi value between 7 and 9 (Ki between 100 nM and 1 nM)) |  |  | B (B represents a pKi value between 9 and 10 (Ki between 1 nM and 0.1 nM)) |  | B (B represents a pEC50 value between 6.7 and 7.5 (EC50 between 200 nM and 32 nM)) | A (A represents a pEC50 value≥7.5 (EC50≤32 nM))
17 | Cc1cc(Nc2cc3nc(CS(C)(=O)=O)ccc3c(N[C@@H]3C[C@H]4CC[C@@H](C3)N4CCC(F)(F)F)n2)n[nH]1 [Example 5-43] | B (B represents a pKi value between 9 and 10 (Ki between 1 nM and 0.1 nM)) | C (C represents a pKi value between 7 and 9 (Ki between 100 nM and 1 nM)) |  |  | B (B represents a pKi value between 9 and 10 (Ki between 1 nM and 0.1 nM)) | B (B represents a pKi value between 9 and 10 (Ki between 1 nM and 0.1 nM)) | B (B represents a pEC50 value between 6.7 and 7.5 (EC50 between 200 nM and 32 nM)) | 
